Source: patent publication US10739333B2, “Methods of BH3 profiling” (Dana-Farber Cancer Institute, Inc., priority 2013, dated 2020)

Tests used:
[1] = test system: SuDHL4 cell line; assay: miBH3 profile of the SuDHL4 cell line (FIG. 4); format: cell-based; details: FIG. 4A, matches other BH3 profiling methods in FIG. 4B
Protocol: BH3 profiling can be accomplished at the single cell level by immobilizing cells on a solid surface. Optionally the solid surface is polyamine or poly-lysine coated. Immobilized cells are permeabilized as described above. The cells are then contacted with BH3 peptides and/or test agents. After the cells have been treated for a predetermined period of time such as 45-90 minutes, the cells are fixed and further permeabilized by methods known in the art. For example the cells are fixed with formaldehyde and further permeabilized with methanol or Triton X-100 (t-Octylphenoxypolyethoxyethanol). Outer membrane permeabilization is determined by intracellular staining for molecules from the mitochondrial inter-membrane space and a mitochondrial marker. Examples of molecules that can be measured include cytochrome c, SMAC/Diablo, Omi, adenylate kinase-2 or apoptosis inducing factor (AIF). A mitochondrial marker includes MnSOD. Stained cells can be counterstained with nuclear stains such as DAPI. Optionally other intracellular and extracellular markers can be measured. […]
MicroBH3 (miBH3) is a BH3 profiling method where the measurement of the mitochondrial effect of […] peptides have on individual cells by microscopy. […] Fixed cells by this method can be readily stopped at the fixation step and can be analyzed weeks after acquisition as well as readily re-analyzed if needed.

[2] = test system: MDA-MB-231; assay: BH3 profiling in pre-made frozen versus freshly prepared plates (FIG. 5); format: cell-based; details: responsive cells MDA-MB-231
Text: Also included in the invention are kits for performing BH3 Profiling using whole cells. The kit consists of a multi-well plate containing staining components in a mitochondrial buffer and a tube of mitochondrial buffer for the suspension and dispensing of cells into the plate for analysis. Each well of the multi-well plate contains a mixture of JC-1 dye, oligomycin, 2-mercaptoethanol, digitonin, and a peptide or small molecule at twice their final concentration, Optionally the plate and suspension buffer tube can be frozen for later use along with the suspension buffer tube. To use, the plate and buffer tube are thawed and brought to room temperature. Cells are suspended in buffer, dispensed into the wells of the plate, and analyzed in a fluorescence plate reader using the JC-1 red fluorescence at 590 nm with excitation at 545 nm.

With “BAD: BH3 domain peptide LWAAQRYGRELRRMSDEFEGSFKGL, SEQ ID NO 4” the “release of cytochrome c / loss of correlation between cytochrome c and MnSOD channels” value [1] was “Release of cytochrome c and loss of correlation” and the “response to peptide treatment in frozen and freshly prepared plates” value [2] was “comparable response”.
